The nature of assay [1]: HepG2 cell cytotoxicity, dose response, cytotoxicity control for Shn3 inhibitor project, CellTiter-Glo, cherry-picked (AID 624134). The format is functional, cell-based.
The target in assay [2] is T1, Microphthalmia-associated transcription factor (Homo sapiens, UniProt O75030).
T1 sequence (O75030 whole entry): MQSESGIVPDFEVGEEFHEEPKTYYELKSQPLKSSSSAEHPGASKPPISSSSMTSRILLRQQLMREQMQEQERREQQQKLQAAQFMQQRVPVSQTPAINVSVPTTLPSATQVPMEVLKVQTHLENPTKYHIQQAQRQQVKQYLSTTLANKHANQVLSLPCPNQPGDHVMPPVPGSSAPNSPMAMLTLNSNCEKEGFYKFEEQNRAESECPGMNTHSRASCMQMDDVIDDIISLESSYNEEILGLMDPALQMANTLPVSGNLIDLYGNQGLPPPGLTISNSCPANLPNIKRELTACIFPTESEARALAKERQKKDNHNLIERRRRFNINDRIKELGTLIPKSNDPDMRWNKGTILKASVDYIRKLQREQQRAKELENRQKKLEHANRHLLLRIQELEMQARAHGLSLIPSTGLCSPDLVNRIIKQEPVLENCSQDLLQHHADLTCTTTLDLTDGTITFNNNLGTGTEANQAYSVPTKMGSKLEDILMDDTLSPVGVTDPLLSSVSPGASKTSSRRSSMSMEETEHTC
The experiment in a line: TRPM1 promoter luciferase signal decrease, dose response, MITF inhibitor project, cell-based, SK-MEL-5, cherry-picked, set 3 (AID 493073).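 Note: SK-MEL-5 melanoma cells with luciferase driven by the MITF target TRPM1 promoter.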 The format is functional.

The nature of assay [3]: Shn3 3'UTR reporter inhibitors, dose response, cell-based, Clone20 osteoblasts, firefly luciferase, cherry-picked (AID 624132).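 Note: firefly luciferase luminescence from reporter carrying the Shn3 3'UTR in osteoblasts.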 In kind it is functional.
Assay [4] can be described thus: control 3'UTR Renilla luciferase suppression, dose response, counter-screen for Shn3 inhibitor project, cell-based, Clone20-Shn3RL, cherry-picked (AID 624133). The format is functional. Background: Counterscreens check selectivity or assay interference.
Another assay has as its target T2, Streptokinase A (Streptococcus pyogenes serotype M1, UniProt P10520).
T2 sequence (P10520 whole entry): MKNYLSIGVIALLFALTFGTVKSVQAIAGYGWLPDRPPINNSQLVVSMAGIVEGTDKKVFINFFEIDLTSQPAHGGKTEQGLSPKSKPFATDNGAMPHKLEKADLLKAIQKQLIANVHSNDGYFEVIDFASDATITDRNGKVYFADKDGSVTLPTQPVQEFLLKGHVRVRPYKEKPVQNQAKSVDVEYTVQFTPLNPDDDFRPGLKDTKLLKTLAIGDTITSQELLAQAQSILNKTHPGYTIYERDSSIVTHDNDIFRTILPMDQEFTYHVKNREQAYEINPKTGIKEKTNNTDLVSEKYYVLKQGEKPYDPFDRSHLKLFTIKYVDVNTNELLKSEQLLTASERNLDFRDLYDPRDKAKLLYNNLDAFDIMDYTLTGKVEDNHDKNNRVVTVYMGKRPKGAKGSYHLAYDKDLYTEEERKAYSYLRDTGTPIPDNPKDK
The experiment in a line: S. pyogenes streptokinase expression inhibitors, potency, dose response, plasminogen activation absorbance, OD405 (AID 1914).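 Note: secreted streptokinase activity via plasminogen activation per viability signal from cell pellet.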 In kind it is functional, Streptococcus pyogenes M1 GAS.

In another assay the test system is Streptococcus. In words: Group A Streptococcus viability loss, dose response, counter-screen for streptokinase expression inhibitor project, luminescence, BacTiterGlo (AID 1915).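 Note: potency for reduction of bacterial viability or growth.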 The format is functional, organism-based.
Assay [5] deals with T3, Endoribonuclease toxin MazF (Escherichia coli K-12, UniProt P0AE70).
T3 sequence (P0AE70 whole entry): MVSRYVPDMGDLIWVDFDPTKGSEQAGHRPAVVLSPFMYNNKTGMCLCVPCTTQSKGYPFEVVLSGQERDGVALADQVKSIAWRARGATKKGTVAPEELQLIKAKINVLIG
The experiment in a line: MazF toxin RNase activators, dose response, biochemical, fluorescence, single-stranded RNA substrate, uHTS hits (AID 588481). The format is functional.

The target in assay [6] is T3, Endoribonuclease toxin MazF. In words: fluorescent RNA oligo signal without MazF, dose response, counter-screen for MazEF activator project, biochemical, fluorescence, single-stranded RNase substrate (AID 588502). The format is functional.
The test system of assay [7] is Streptococcus sp. 'group A'. The experiment in a line: growth inhibition of control SK(-) GAS strain, dose response, counter-screen for streptokinase expression inhibitor project, luminescence, kanamycin, BacTiterGlo, confirmation (AID 1900). In kind it is functional, organism-based.
The next assay concerns the target Paired box protein Pax-8 (Homo sapiens, UniProt Q06710). The experiment in a line: inhibitors of PAX8-driven TPO luciferase reporter, dose response, RMG-I cells, cherry-pick (AID 687027).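 Note: luciferase reporter driven by Pax8 target thyroperoxidase promoter measured by SteadyGlo luminescence.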 The format is functional, cell-based. On the technique in general: In a reporter assay the amount or activity of a reporter protein is the signal.
Assay [8] has as its target T4, Carboxy-terminal domain RNA polymerase II polypeptide A small phosphatase 1 (Homo sapiens, UniProt Q9GZU7).
T4 sequence (Q9GZU7 whole entry): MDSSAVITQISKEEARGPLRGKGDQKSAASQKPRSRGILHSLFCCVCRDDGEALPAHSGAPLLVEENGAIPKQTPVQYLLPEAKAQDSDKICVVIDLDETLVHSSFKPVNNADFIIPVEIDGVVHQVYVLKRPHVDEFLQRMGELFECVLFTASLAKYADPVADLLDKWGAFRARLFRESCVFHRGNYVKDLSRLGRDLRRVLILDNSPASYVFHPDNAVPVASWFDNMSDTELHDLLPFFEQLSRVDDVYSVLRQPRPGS
In words: inhibitors of CTDSP1, concentration-response testing, biochemical assay, absorbance-based, actives from ultra-high-throughput screening (AID 540297). In kind it is functional.

In the next assay the target is T5, Cytochrome P450 1A2 (Homo sapiens, UniProt P05177).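 Note: PubChem cytochrome P450 panel assay, CYP1A2 panel member.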
T5 sequence (P05177 whole entry): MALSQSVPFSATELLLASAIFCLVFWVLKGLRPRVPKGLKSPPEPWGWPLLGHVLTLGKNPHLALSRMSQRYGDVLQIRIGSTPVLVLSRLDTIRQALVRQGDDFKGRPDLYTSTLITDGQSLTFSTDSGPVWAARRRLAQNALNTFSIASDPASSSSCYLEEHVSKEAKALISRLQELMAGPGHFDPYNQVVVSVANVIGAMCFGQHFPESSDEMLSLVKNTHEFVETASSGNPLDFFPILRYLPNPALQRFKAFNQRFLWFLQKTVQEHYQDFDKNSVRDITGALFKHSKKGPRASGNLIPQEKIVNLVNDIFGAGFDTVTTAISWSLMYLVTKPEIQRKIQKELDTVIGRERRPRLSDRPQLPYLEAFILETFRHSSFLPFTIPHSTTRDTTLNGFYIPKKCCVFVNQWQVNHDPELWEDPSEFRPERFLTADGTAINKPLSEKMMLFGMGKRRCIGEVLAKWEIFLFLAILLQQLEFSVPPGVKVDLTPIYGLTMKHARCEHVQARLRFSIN

For assay [9], the target named is T6, DNA repair protein RAD52 homolog (Homo sapiens, UniProt P43351).
T6 sequence (P43351 whole entry): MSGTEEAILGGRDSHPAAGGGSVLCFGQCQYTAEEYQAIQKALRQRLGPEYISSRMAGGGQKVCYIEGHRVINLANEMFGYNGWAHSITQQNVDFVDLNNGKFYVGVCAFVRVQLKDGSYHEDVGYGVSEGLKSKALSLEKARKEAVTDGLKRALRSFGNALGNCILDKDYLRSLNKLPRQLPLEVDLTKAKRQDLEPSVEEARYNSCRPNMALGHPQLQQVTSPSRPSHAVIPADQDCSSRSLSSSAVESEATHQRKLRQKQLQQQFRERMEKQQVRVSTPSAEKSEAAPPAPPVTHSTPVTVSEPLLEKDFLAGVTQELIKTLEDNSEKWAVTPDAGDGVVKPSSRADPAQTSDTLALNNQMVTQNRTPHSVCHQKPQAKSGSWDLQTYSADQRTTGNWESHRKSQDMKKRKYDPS
In kind it is functional, biochemical.

Assay [10] deals with T7, Corticotropin-releasing factor receptor 2/Corticotropin-releasing factor-binding protein (Homo sapiens, UniProt P24387+Q13324).
T7 sequence (Q13324 whole entry): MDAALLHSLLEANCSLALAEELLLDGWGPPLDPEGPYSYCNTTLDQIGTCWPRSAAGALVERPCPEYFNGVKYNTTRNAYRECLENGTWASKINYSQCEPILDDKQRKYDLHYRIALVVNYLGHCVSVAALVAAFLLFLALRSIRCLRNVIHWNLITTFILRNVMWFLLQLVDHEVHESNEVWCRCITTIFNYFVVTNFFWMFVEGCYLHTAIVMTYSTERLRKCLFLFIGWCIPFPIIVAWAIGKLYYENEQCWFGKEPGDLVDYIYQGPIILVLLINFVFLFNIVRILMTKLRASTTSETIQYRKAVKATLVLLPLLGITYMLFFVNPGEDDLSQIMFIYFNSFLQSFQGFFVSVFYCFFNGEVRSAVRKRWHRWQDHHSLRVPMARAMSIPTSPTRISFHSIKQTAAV
T7 sequence (P24387 whole entry): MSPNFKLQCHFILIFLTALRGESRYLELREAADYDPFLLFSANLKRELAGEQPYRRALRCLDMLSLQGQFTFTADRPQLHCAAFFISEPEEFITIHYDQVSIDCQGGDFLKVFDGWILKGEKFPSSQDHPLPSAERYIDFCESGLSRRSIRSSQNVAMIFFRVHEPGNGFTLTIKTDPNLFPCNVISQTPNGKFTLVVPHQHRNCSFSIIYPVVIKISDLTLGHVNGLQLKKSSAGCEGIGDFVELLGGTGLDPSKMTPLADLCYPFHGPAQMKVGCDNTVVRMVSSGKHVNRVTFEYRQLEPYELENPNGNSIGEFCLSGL
In words: activators of CRF receptor 2 with binding protein – uHTS hits, confirmation (AID 602473). The conditions noted are these: read-out: EC50_Mean. In kind it is functional.

Assay [11] deals with T8, Zinc finger protein mex-5 (Caenorhabditis elegans, UniProt Q9XUB2).
T8 sequence (Q9XUB2 whole entry): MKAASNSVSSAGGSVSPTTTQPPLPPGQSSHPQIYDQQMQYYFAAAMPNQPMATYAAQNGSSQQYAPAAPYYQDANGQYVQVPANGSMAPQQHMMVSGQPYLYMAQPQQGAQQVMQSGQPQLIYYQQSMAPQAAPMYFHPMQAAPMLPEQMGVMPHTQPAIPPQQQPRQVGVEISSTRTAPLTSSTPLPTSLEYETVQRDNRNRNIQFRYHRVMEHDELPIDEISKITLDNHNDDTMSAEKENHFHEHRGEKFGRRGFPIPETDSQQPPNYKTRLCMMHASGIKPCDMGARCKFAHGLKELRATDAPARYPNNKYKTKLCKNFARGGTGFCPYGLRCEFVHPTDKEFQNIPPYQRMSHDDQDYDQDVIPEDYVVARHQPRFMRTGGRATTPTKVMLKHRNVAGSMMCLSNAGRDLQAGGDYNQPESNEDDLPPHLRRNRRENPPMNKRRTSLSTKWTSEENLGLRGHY
In words: MEX-5/TCR-2 RNA interaction inhibitors, dose response, biochemical, C. elegans, fluorescence polarization (AID 1960). (In general: Polarisation of emitted light reports the rotation of a fluorescent probe.)

The target in assay [12] is T9, RNA-binding protein pos-1 (Caenorhabditis elegans, UniProt G5EF15).
T9 sequence (G5EF15 whole entry): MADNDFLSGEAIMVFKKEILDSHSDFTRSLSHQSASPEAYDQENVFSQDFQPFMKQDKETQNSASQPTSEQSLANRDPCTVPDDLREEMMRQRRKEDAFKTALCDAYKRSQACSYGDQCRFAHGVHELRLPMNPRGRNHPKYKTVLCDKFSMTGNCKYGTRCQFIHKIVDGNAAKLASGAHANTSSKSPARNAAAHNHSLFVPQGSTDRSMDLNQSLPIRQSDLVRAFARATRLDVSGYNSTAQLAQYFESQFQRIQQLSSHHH
The experiment in a line: inhibitors of POS-1/mex-3 RNA binding, dose response, biochemical, fluorescence polarization (AID 1964).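 Note: purified POS-1 fused to maltose binding protein made in E. coli; potency of compounds blocking POS-1 binding to fluorescent RNA.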

Activity calls are given as the source filed them. Bounds are passed on as bounds.

Sequence of Paired box protein Pax-8 (Q06710 whole entry, the tested form may be a part): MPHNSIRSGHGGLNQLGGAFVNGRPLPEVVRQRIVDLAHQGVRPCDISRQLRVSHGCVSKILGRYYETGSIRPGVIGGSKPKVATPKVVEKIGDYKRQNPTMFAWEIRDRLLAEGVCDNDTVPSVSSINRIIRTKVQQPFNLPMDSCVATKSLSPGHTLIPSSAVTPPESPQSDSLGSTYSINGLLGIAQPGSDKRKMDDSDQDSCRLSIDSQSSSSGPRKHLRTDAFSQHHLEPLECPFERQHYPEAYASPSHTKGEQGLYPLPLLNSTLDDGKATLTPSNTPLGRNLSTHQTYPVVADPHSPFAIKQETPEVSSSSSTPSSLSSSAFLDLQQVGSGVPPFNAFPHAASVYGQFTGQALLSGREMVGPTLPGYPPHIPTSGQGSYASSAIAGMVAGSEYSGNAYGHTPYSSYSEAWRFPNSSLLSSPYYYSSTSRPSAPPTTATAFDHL

As usually defined, the AC50 is the concentration giving half of the maximal activity seen. As for `CC(=O)Nc1nc(C)c(-c2csc(Nc3cccc(C(C)=O)c3)n2)s1`, the AC50 in assay [1] was 21 µM (active); in assay [2], 8.38 µM (active); in assay [3], 1.67 µM (active); in assay [4], < 0.5 µM (active).
Regarding `N#C/C(=C(/O)c1ccc([N+](=O)[O-])o1)c1nc2ccccc2[nH]1`, the EC50 at Streptokinase A is 27.6 µM (active); with Streptococcus it was 66 µM (active); in [5], > 99 µM (inactive); in assay [6] it was 5.53 µM (active); in assay [7] it was 3.57 µM (active). Moreover, in assay [2], the AC50 was 3.8 µM (active).
Regarding `CN(C)CC(C(=O)Cc1ccccc1)c1ccccc1` (stereo unspecified), the AC50 was 14.5 µM (active) in [1], 7.81 µM (active) in assay [3], 7.58 µM (active) in [4] and 1.71 µM (active) on Paired box protein Pax-8.
For `Cc1cc(C)c(C#N)c(SCC(=O)c2cccs2)n1`, the EC50 in assay [5] was 18 µM (active); in [6], > 99 µM (inactive).
Broadly, the IC50 is the midpoint of a concentration-inhibition curve. In the case of `O=C(N/N=C/c1cccc(OC2CSC2)c1)c1ccccc1O`, the IC50 in [8] was 6.78 µM (active). The AC50 on Cytochrome P450 1A2 is 3.16 µM (inconclusive).
For the molecule `CN1CCN(CCCNc2nc3ccccc3c3nc(-c4ccccc4)nn23)CC1`, in assay [9], the AC50 was 14.2 µM (active).
`Cc1cc(/C=C2\C(=O)NC(=O)N(c3cccc(Br)c3)C2=O)c(C)n1C`: the EC50 in assay [10] was 26.2 µM (active); in [5], > 99 µM (inactive); in assay [6] it was > 99 µM (inactive).
Regarding `O=[N+]([O-])c1ccc(/C=C/c2ccc3cccc(O)c3n2)cc1`, the EC50 in assay [5] and in [6] was > 99 µM (inactive) in each case.
As to `CCN1CCN(Cc2c(C(=O)N/N=C(\C)c3ccc(Cl)cc3)nnn2-c2nonc2N)CC1`, the EC50 in assay [11] and in assay [12] was > 300 µM (not active) throughout. In assay [9], the AC50 was 8.73 µM (active).
As to `CCn1c(/C=C/c2c(C)n(CC)c3ccccc23)nc2ccccc2c1=O`, the EC50 in assay [5] and in assay [6] was > 99 µM (inactive) throughout.
On to `Cc1ccc(-n2nnnc2SCc2nc3sc(C)c(C)c3c(=O)[nH]2)cc1`, for which the EC50 in [5] and in assay [6] was > 99 µM (inactive) each time.

These data come from ChEMBL document CHEMBL1201862, “PubChem BioAssay data set” (2004).
